Test results from patent US11110158B2, “Prostate-associated antigens and vaccine-based immunotherapy regimens” (Pfizer Inc., priority 2012, dated 2021).
Several values for one entry are separate records, joined by “and”; a condition that tells them apart may be missing. Equal entries are not always repeated.

Legend:
293 cells = test: Expression of PSMA constructs in transfected 293 cells by FACS; type: cell-based; conditions: 293 cells transfected with PJV7563 vector, stained with mouse anti-PSMA antibody three days later; cell surface expression
Description: The expression of the PSMA cytosolic, secreted, and modified antigens was determined by FACS. Mammalian 293 cells were transfected with the PJV7563 PMED vectors encoding the various immunogenic PSMA polypeptides. Three days later, the 293 cells were stained with mouse anti-PSMA antibody, followed with a fluorescent conjugated (FITC) rat anti-mouse secondary antibody.

[1] = system: hPSMA full-length protein; test: IFN-γ ELISPOT, hPSMA modified versus full-length DNA vaccine in C57BL/6 mice; type: in vivo, human; conditions: Example 7, FIG. 26; C57BL/6, PMED days 0, 14, 28; day 35
Text: (§1) The immune responses induced by DNA vaccination using a construct encoding an immunogenic PSMA polypeptide (the “human PSMA modified antigen” or “hPSMA modified”) consisting 15-750 amino acids (aa) of the native human PSMA protein of SEQ ID NO: 1 were compared with those induced by the native human full-length PSMA protein (hPSMA full length). Groups of female C57BL/6 mice or female Pasteur (HLA-A2/DR1) transgenic mice were primed on day 0 and boosted on days 14, 28 by PMED administration with a 2 μg dose of a DNA vaccine encoding either hPSMA full-length or hPSMA modified protein. Mice were bled and sacrificed on day 35 (7 days after the third vaccination) and T cell immune responses against the hPSMA full-length protein were determined in splenocytes by IFN-γ ELISPOT assay. For C57BL/6 mice, single cell suspensions of 5×10^5 splenocytes from individual animals were plated per well with […] purified hPSMA protein, 5×10^4 TRAMP-C2 cells alone, or TRAMP-C2 cells expressing hPSMA or a PSMA-PSA-PSCA fusion protein. […] Responses in Pasteur mice were also determined using 10 μg/ml purified PSMA protein or 5×10^4 SK-Mel5 cells that had been transduced with Adenoviral vectors expressing a control protein (Ad-eGFP) or the full-length human PSMA protein (Ad-hPSMA). […] The number of IFN-γ SFC was counted by a CTL reader. […]

[2] = system: hPSMA full-length protein; test: IFN-γ ELISPOT, hPSMA modified versus full-length DNA vaccine in Pasteur (HLA-A2/DR1) transgenic mice; type: in vivo, human
Text: as §1

human PSMA = test: IFNγ ELISPOT of PBMCs, PSMA vaccine with or without anti-CTLA-4 in Indian rhesus macaques, human PSMA recall antigens; type: in vivo, rhesus macaque
Text: Three groups of male Indian rhesus macaques, five to six (#1 to 5 or 6) per each test group, were immunized with a nucleic acid (SEQ ID NO: 10) that encodes a human PSMA modified antigen (SEQ ID NO: 9) delivered by adenovirus (1e11 V.P. injected intramuscularly) followed by 2 DNA immunizations (8 actuations/immunization, 4 actuations per each right and left side of the lower abdomen) by PMED with 6 and 9 week intervals respectively. Animals in Groups 2 and 3 additionally received bilateral intradermal injections of 3 mg of CpG (PF-03512676) subsequently after the PMED immunization in proximity to each inguinal draining lymph node. Group 2 also received intravenous injections of anti-CTLA-4 monoclonal antibody (CP-675, 206) at 10 mg/kg and group 3 received intradermal injections of anti-CTLA-4 monoclonal antibody (CP-675, 206) at 5 mg/kg in proximity to each left and right inguinal vaccine draining lymph node at the time of the second PMED immunization.
Peripheral blood samples were collected from each animal sixteen days after the last PMED immunization. Peripheral blood mononuclear cells (PBMCs) were isolated from the samples and were subjected to an IFNγ ELISPOT assay to measure the PSMA specific T cell responses. Briefly, 4e5 PBMCs from individual animals were plated per well with pools of PSMA specific peptides each at 2 ug/ml hPSMA ECD protein at 10 ug/ml, rhesus PSMA ECD protein at 10 ug/ml or nonspecific control peptides (human HER2 peptide pool) each at 2 ug/ml in IFNγ ELISPOT plates. The plates were incubated for 16 hrs at 37° C. and 5% CO2 and washed and developed after incubation as per manufacturer's instruction. The number of IFNγ spot forming cells (SFC) were counted by CTL reader. Each condition was performed in duplicates.
A capture antibody specific to IFNγ([…]BD Bioscience, #51-2525kc) is coated onto a polyvinylidene fluoride (PVDF) membrane in a microplate overnight at 4° C. The plate is blocked with serum/protein to prevent nonspecific binding to the antibody. After blocking, effector cells (such as splenocytes isolated from immunized mice or PBMCs isolated from rhesus macaques) and targets (such as PSMA peptides from peptide library, target cells pulsed with antigen specific peptides or tumor cells expressing the relevant antigens) are added to the wells and incubated overnight at 37° C. in a 5% CO2 incubator. Cytokine secreted by effector cells are captured by the coating antibody on the surface of the PVDF membrane. After removing the cells and culture media, 100 μl of a biotinylated polyclonal anti-humanIFNγ antibody was added to each of the wells for detection. The spots are visualized by adding streptavidin-horseradish peroxidase and the precipitate substrate, 3-amino-9-ethylcarbazole (AEC), to yield a red color spot as per manufacturer's (Mabtech) protocol. Each spot represents a single cytokine producing T cell.

[3] = Group 2, vaccine + CpG 3 mg intradermal + aCTLA4 10 mg/kg intravenous (IV), rhesus PBMCs, normalized to 1e6 PBMCs, one cell per animal, 10 mg/kg
[4] = Group 3, vaccine + CpG 3 mg intradermal + aCTLA4 5 mg/kg intradermal (ID) near each inguinal node, rhesus PBMCs, normalized to 1e6 PBMCs, ^ too numerous to count, 5 mg/kg

| Substance | Average mean fluorescent intensity (293 cells) | IFN-γ T cell responses to TRAMP C2-PSMA or purified hPSMA protein [1] | IFN-γ T cell immune responses to the HLA-A2-restricted CD8+ T cell epitopes ([2]; Example 7, FIG. 27A, day 35, difference between groups not significant) | IFN-γ SFC to the purified hPSMA protein ([2]; Example 7, FIG. 27B, day 35, versus hPSMA full-length vaccine) | PSMA specific IFNγ SFC, recall antigen H1 (human PSMA; [3]) | PSMA specific IFNγ SFC, recall antigen H2 (human PSMA; [3]) | PSMA specific IFNγ SFC, recall antigen P1 (human PSMA; [3]) | PSMA specific IFNγ SFC, recall antigen P2 (human PSMA; [3]) | PSMA specific IFNγ SFC, recall antigen P3 (human PSMA; [3]) | PSMA specific IFNγ SFC, recall antigen hPSMA protein (human PSMA; [3]) | PSMA specific IFNγ SFC, recall antigen H2 (human PSMA; [4]) | PSMA specific IFNγ SFC, recall antigen hPSMA protein (human PSMA; [4]) | IFNγ T cell responses to PSMA specific peptides and proteins (human PSMA; group 2: vaccine + CpG (PF-03512676) + systemic (intravenous) anti-CTLA-4 10 mg/kg, versus vaccine alone) | IFNγ T cell responses to PSMA specific peptides and proteins (human PSMA; group 3: vaccine + CpG + anti-CTLA-4 delivered locally by intradermal injections near the vaccine draining lymph node) |
| --- | --- | --- | --- | --- | --- | --- | --- | --- | --- | --- | --- | --- | --- | --- |
| PSMA modified: membrane-bound polypeptide of amino acids 15-750 of human PSMA, SEQ ID NO: 9; tested as DNA construct | 12270 | equivalent T cell immune responses | highest magnitude of IFN-γ T cell immune responses | higher frequencies of IFN-γ SFC |  |  |  |  |  |  |  |  |  |  |
| Tremelimumab: fully human IgG2 anti-CTLA-4 monoclonal antibody, CAS 745013-59-6, SEQ ID NOs:42 and 43 |  |  |  |  | 71.3 SFC and 2.5 SFC and 1063.8 SFC and 147.5 SFC and 402.5 SFC | 292.5 SFC and 108.8 SFC and 82.5 SFC and 983.8 SFC and 573.8 SFC | 23.8 SFC and 0.0 SFC and 58.8 SFC and 25.0 SFC and 15.0 SFC | 57.5 SFC and 61.3 SFC and 41.3 SFC and 318.8 SFC and 312.5 SFC | 1.3 SFC and 0.0 SFC and 7.5 SFC and 27.5 SFC and 5.0 SFC | 278.8 SFC and 78.8 SFC and 1197.5 SFC and 1046.3 SFC and 707.5 SFC | ≥ 1236.3^ SFC and ≥ 1247.5^ SFC and ≥ 1248.8^ SFC and 1173.8 SFC | ≥ 1236.8^ SFC and ≥ 1247.5^ SFC and ≥ 1248.8^ SFC and ≥ 1242.5^ SFC | modestly enhanced | more potent and significant enhancement of the response |
